Source: patent publication US7576112B2, “Therapeutic N-aryl or N-heteroaryl pyrazolidine and pyrazolidinone derivatives” (Allergan, Inc., priority 2006, dated 2009)

Columns and labels:
EP2 [1] = molecular target: T1, EP2 (Homo sapiens, UniProt P43116); assay: EP2 flipr functional assay; type: cell-based
Excerpt: (§1) U.S. patent application Ser. No. 11/553,143, filed on Oct. 26, 2006, incorporated by reference herein, describes the methods used to obtain the in vitro data in the table below.

EP2 [2] = molecular target: T1, EP2; assay: EP2 cAMP assay; type: cell-based
Excerpt: as §1

EP2 [3] = molecular target: T1, EP2; assay: EP2 binding (Ki)
Excerpt: as §1

EP4 = EP4 (Homo sapiens, UniProt P35408); assay: EP4 binding (Ki)
EP4, sequence (P35408 whole entry): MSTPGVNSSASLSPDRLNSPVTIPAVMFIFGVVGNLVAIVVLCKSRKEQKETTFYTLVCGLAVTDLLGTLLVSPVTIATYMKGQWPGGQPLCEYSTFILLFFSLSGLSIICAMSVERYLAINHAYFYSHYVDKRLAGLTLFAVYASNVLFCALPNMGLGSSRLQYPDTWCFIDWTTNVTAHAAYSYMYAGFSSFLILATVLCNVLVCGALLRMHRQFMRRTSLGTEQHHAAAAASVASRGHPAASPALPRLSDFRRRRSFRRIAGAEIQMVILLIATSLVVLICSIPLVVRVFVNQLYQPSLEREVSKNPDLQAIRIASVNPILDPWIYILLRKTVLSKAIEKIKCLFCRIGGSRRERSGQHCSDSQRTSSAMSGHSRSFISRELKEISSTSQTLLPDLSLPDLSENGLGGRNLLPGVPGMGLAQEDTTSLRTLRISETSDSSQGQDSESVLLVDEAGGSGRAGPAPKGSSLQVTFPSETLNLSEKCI
Excerpt: as §1

hEP3A = molecular target: T2, hEP3A (Homo sapiens, UniProt P43115); assay: Other receptors functional assay, hEP3A; type: cell-based
T2 sequence (P43115 1-390): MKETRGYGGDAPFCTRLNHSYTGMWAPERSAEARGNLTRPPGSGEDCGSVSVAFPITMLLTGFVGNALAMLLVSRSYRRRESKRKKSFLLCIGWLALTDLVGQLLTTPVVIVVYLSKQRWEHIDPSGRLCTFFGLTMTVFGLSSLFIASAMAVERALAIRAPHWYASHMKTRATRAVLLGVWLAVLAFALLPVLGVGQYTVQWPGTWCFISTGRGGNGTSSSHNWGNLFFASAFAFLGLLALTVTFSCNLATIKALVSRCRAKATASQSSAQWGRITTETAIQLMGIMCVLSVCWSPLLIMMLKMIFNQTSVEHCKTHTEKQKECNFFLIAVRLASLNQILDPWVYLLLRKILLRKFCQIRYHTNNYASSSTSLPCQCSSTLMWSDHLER
Excerpt: as §1

T1 sequence (P43116 whole entry): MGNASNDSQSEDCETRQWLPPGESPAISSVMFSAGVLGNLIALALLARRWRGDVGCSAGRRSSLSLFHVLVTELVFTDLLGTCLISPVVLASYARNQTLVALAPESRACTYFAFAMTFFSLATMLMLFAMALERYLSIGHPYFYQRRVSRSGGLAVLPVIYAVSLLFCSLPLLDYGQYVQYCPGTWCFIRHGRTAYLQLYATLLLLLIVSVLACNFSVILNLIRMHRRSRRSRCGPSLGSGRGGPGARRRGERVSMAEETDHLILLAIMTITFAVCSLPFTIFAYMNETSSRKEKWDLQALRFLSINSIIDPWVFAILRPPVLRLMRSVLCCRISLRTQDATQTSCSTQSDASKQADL

EC50 (EP2 [1]): 79 nM
EC50 (EP2 [2]): 1.8 nM
Ki (EP2 [3]): 251 nM
Ki (EP4): > 10 µM
EC50 (hEP3A): 5070 nM
Structure (SMILES): CCCCC[C@H](O)c1ccc(N2C(=O)CCN2CCCc2ccc(C(=O)O)s2)cc1 (stereo in doubt) [5-(3-(2-(4-(1-hydroxyhexyl)phenyl)-3-oxopyrazolidin-1-yl)propyl)thiophene-2-carboxylic Acid]
